Measured values reported in patent publication US20240109972A1, “ANTIBODY AND TAXANE COMBINATION THERAPY” (Genmab A/S, priority 2020, published 2024).

Key:
metastatic NSCLC = test: GEN1046 in combination with docetaxel in metastatic NSCLC subjects, efficacy (RECIST v1.1); format: in vivo, human; details: six subjects dosed with GEN1046 and 75 mg/m^2 Docetaxel
Protocol: Docetaxel was administered at a dose of 55 mg/m^2 or 75 mg/m^2 depending on the number of prior Dose Limiting Toxicities observed. The maximum tested dose of docetaxel was be 75 mg/m^2.
The following inclusion criteria applied to the combination arm (NSCLC): GEN1046 in combination with docetaxel: • NSCLC subjects of any histology may be enrolled. Subjects with a histological or cytological diagnosis of non-squamous NSCLC must not have an EGFR-sensitizing mutation and/or ALK translocation/ROS1 rearrangement. EGFR sensitizing mutations are those mutations that are amenable to treatment with an approved TKI. Documentation of EGFR and ALK status should be available per local assessment.
In one of the six patients the first post-baseline scan was indicative of response according to RECIST Criteria v1.1.

interferon-gamma (IFN-γ) = test: Serum interferon-γ levels in cancer patients after GEN1046 (MSD multiplex immunoassay); format: in vivo, human
Protocol: Serum levels of IFN-γ were measured by a Meso Scale Discovery (MSD) multiplex immune-assay (cat. no. K15209G) following the manufacturer's instructions.

GEN1046: PD-L1×4-1BB bispecific antibody: PD-L1-547-FEAL combined with CD137-009-HC7LC2-FEAR (SEQ ID NOs: 1, 5, 21, 19; 8, 12, 22, 20)
Patients whose first post-baseline scan was indicative of response (RECIST v1.1) (metastatic NSCLC): one | Dose levels with higher magnitude and consistent modulation of peripheral pharmacodynamic endpoints (interferon-gamma (IFN-γ); IFNγ and proliferating Ki67+ effector memory CD8+ T cells): ≥ 200 mg | Dose levels with maximal increases of IFN-γ (interferon-gamma (IFN-γ); first treatment cycle): 50 mg and 80 mg | Increase of IFN-γ levels (interferon-gamma (IFN-γ); first treatment cycle, across all dose levels tested): more than 2 fold
